Data taken from US20260198495A1, “BINARY INSECTICIDE COMPOSITION AND USE THEREOF” (SHENYANG SINOCHEM AGROCHEMICALS R & D CO., LTD., priority 2022, published 2026).

How the values were obtained:
Assay type in all cases: in vivo
[1] = test system: 2nd-instar nymphs of Frankliniella occidentalis Pergande; test: Joint toxicity of I-72 + carbosulfan, leaf spraying, Example 22, Table 22; settings: in Phaseolus vulgaris, 48 h
Protocol: (§1) Test subject: 2nd-instar nymphs of Frankliniella occidentalis Pergande, a sensitive strain reared indoors.
Preparation of the pesticide solution: according to different test requirements, the test samples in Table 1 were accurately weighed respectively with an electronic analytical balance. The technical pesticides were dissolved in acetone, and then diluted with 0.1% Tween 80 water into a series of pesticide solutions with a certain concentration gradient according to the experimental design dosage.
(§2) Test conditions: temperature: 25-27° C., humidity: RH 60%, and illumination: L:D=14:10
Experimental method: the spraying method was adopted. The kidney bean leaves cultivated in the greenhouse were selected, and the petioles were wrapped with moist degreased cotton and sealing film. They were evenly sprayed with the pesticide solution in the order from low dosage to high dosage according to the experimental design, placed in a 6-cm-diameter Petri dish with filter paper. After natural air-drying in the shade, the test insects were introduced, with 20 insects for each treatment and 3 replicates. In addition, a blank control was set up. […] The corrected mortality rate was calculated using the Abbott's formula, and the DPS data processing software was used for statistical analysis to calculate the toxicities (LC50 values) of the single test pesticides and the mixtures under the test ratios. […]

[2] = test system: Frankliniella occidentalis Pergande; test: Joint toxicity of I-72 + organophosphorus insecticides, leaf dipping, Example 14, Table 14; settings: in Phaseolus vulgaris, foliar, 48 h
Excerpt: Test target: Frankliniella occidentalis Pergande, a sensitive strain reared indoors.
Experimental method: first, kidney bean leaves were selected and dipped in the prepared pesticide solution for 10 s in the order from low dosage to high dosage according to the experimental design. After natural air-drying in the shade, they were placed in a 9-cm-diameter Petri dish with filter paper, and uniform and healthy test insects were introduced, with about 20 insects for each treatment and 3 replicates for each treatment. In addition, a blank control was set up.

[3] = test system: 3rd-instar larvae of Chilo suppressalis (Walker); test: Joint toxicity of I-72 + organophosphorus insecticides, rice seedling dipping, Example 15, Table 15; settings: 48 h
Protocol: Test target: 3rd-instar larvae of Chilo suppressalis (Walker), a sensitive strain reared indoors.
(§3) Preparation of the pesticide solution: according to different test requirements, the test samples were accurately weighed respectively with an electronic analytical balance. The technical pesticides were dissolved in acetone, and then diluted with 0.1% Tween 80 water into a series of pesticide solutions with a certain concentration gradient according to the experimental design dosage.
Experimental method: first, tender and fresh rice seedlings were selected and dipped in the prepared pesticide solution for 10 s in the order from low dosage to high dosage according to the experimental design. After natural air-drying in the shade, they were cut into small sections of 5 cm, placed in a 9-cm-diameter Petri dish with filter paper, and uniform and healthy test insects were introduced, with 10 insects for each treatment and 3 replicates for each treatment. In addition, a blank control was set up.
(§4) The treated test materials were placed in an observation room, and the temperature, humidity and illumination of the observation room could be adjusted as needed. The number of dead and live insects was investigated 48 hours later. The corrected mortality rate was calculated using the Abbott's formula, and statistical analysis was performed with the DPS data processing software to obtain the toxicity regression equation, LC50 value and 95% confidence limit of each single test pesticide and each mixture of different ratios. Then, the co-toxicity coefficient of each ratio was calculated using the Sun Y-P method to evaluate the mixing effect (the same as in Example 1).

[4] = test system: 3rd-instar larvae of Plutella xylostella; test: Joint toxicity of I-72 + chlorpyrifos, leaf-disk dipping, Example 16, Table 16; settings: in Brassica oleracea, 72 h
Protocol: Test target: 3rd-instar larvae of Plutella xylostella.
as §3
Experimental method: first, fresh cabbage leaves cultivated in the greenhouse were selected. The cabbage leaves were made into circular leaf disks with a diameter of 3 cm using a puncher and dipped in the prepared pesticide solution for 10 s in the order from low dosage to high dosage according to the experimental design. After natural air-drying in the shade, they were placed in a 9-cm-diameter Petri dish with filter paper, and uniform and healthy test insects were introduced, with 10 insects for each treatment and 3 replicates for each treatment. In addition, a blank control was set up.
The treated test materials were placed in an observation room, and the temperature, humidity and illumination of the observation room could be adjusted as needed. […] Then, the co-toxicity coefficient of each ratio was calculated using the Sun Y-P method to evaluate the mixing effect (the same as in Example 1).

[5] = test system: Aphis gossypii Glover nymphs; test: Joint toxicity of I-72 + organophosphorus insecticides, cotton leaf spraying, Example 17, Table 17; settings: 48 h
Protocol: Test target: Aphis gossypii Glover nymphs, a sensitive strain reared indoors.
as §3
Experimental method: first, cotton leaves with uniform and consistent Aphis gossypii were selected, with about 20 insects on each leaf. Then, they were evenly sprayed with the pesticide solution in the order from low dosage to high dosage according to the experimental design, with 1.5 mL for each leaf and 3 replicates for each treatment. In addition, a blank control was set up.
as §4

[6] = test system: Bemisia tabaci (Gennadius) nymphs; test: Joint toxicity of I-72 + organophosphorus insecticides, cotton leaf-disk spraying, Example 18, Table 18; settings: 96 h
Protocol: Test target: Bemisia tabaci (Gennadius) nymphs.
as §3
Experimental method: first, cotton leaves with neat and consistent Bemisia tabaci (Gennadius) nymphs were selected and made into leaf disks, with about 20 insects on each leaf disk. Then, they were evenly sprayed with the pesticide solution in the order from low dosage to high dosage according to the experimental design, with 1.5 mL for each leaf and 3 replicates for each treatment. In addition, a blank control was set up.
as §4, with “96” for “48”

[7] = test system: adult Phyllotreta spp.; test: Joint toxicity of I-72 + organophosphorus insecticides, cabbage seedling spraying, Example 19, Table 19; settings: 72 h
Protocol: Test target: adult Phyllotreta spp., a sensitive strain reared indoors.
as §3
Experimental method: first, fresh cabbage seedlings cultivated in the greenhouse were selected and evenly sprayed with the pesticide solution in the order from low dosage to high dosage according to the experimental design. After natural air-drying in the shade, they were covered with a glass cover, and uniform and healthy test insects were introduced, with 10 insects for each treatment and 3 replicates for each treatment. In addition, a blank control was set up.
as §4, with “72” for “48”

[8] = test system: 3rd-instar larvae of Hyphantria cunea; test: Joint toxicity of I-72 + organophosphorus insecticides, poplar leaf dipping, Example 20, Table 20; settings: foliar, 72 h
Excerpt: Test target: 3rd-instar larvae of Hyphantria cunea, a sensitive strain reared indoors.
Experimental method: first, fresh and tender poplar leaves were selected, cut into small sections of 5 cm, and dipped in the prepared pesticide solution for 10 s in the order from low dosage to high dosage according to the experimental design. After natural air-drying in the shade, they were placed in a 9-cm-diameter Petri dish with filter paper, and uniform and healthy test insects were introduced, with 10 insects for each treatment and 3 replicates for each treatment. In addition, a blank control was set up.
The treated test materials were placed in an observation room, and the temperature, humidity and illumination of the observation room could be adjusted as needed. The number of dead and live insects was investigated 72 hours later.

[9] = test system: 3rd-instar larvae of Ostrinia furnacalis Guenee; test: Joint toxicity of I-72 + organophosphorus insecticides, corn stalk dipping, Example 21, Table 21; settings: 48 h
Protocol: Test target: 3rd-instar larvae of Ostrinia furnacalis Guenee, a sensitive strain reared indoors.
as §3
Experimental method: first, fresh tender corn stalks cultivated in the greenhouse were selected, cut into small sections of 3 cm, and dipped in the prepared pesticide solution for 10 s in the order from low dosage to high dosage according to the experimental design. After natural air-drying in the shade, they were placed in a 9-cm-diameter Petri dish with filter paper, and uniform and healthy test insects were introduced, with 10 insects for each treatment and 3 replicates for each treatment. In addition, a blank control was set up.
as §4

[10] = test system: 3rd-instar larvae of Pyrausta nubilalis Hubern; test: Synergism assay (Bliss) of I-72 + abamectin, spinosad, spinetoram, emamectin benzoate, Example 6, Table 6; settings: 72 h
Protocol: Test subject: 3rd-instar larvae of Pyrausta nubilalis Hubern, a sensitive strain reared indoors.
Test conditions: temperature: 24-26° C., humidity: RH 60%, and illumination: L:D=14:10
(§5) Preparation method: the test pesticides were accurately weighed respectively with an electronic analytical balance. After the two technical materials were respectively added into an appropriate amount of solvent and completely dissolved, the stock solution of the required concentration was prepared with water containing 0.1% Tween 80. The stock solutions of the two active ingredients were mixed in a certain ratio to prepare a mixed solution, which was then diluted respectively into a series of pesticide solutions with a certain concentration gradient according to the experimental design dosage.
Experimental method: the artificial diet-pesticide film method was adopted. A standard clean 24-well culture plate was selected. 1 ml of artificial diet was added to each well. After the diet cooled and solidified, a quantitative amount of a pesticide solution was added to the culture plate using a continuous sampler, and then it was air-dried naturally in the shade. The standard test insects were introduced, with 1 insect in each well, a total of 48 insects. The treated test insects were placed in an observation room under certain conditions. The reaction of the test insects was regularly observed, and the number of dead and live insects was investigated 72 h later.
The evaluation method adopted was the Bliss method. This method is applicable to the qualitative screening of insecticidal compositions. According to the concept of independent joint action he proposed, Bliss believes that the theoretical mortality rate P when insecticides are used in combination can be calculated by the following formula: […]
Pm is the mortality rate (%) of the target when the first active ingredient is at a concentration of m; and Pn is the mortality rate (%) of the target when the second active ingredient is at a concentration of n.
If the actual mortality rate of the target after the two active ingredients are mixed at a certain concentration is greater than theoretical mortality rate P, it is determined that the two active ingredients have a synergistic effect when used in combination at the set concentration, and otherwise, they have an antagonistic effect.

[11] = test system: 2nd-instar larvae of Chilo suppressalis (Walker); test: Joint toxicity of I-72 + abamectin, rice stalk spraying, Example 7, Table 7; settings: resistant 2nd-instar larvae, 72 h, A = compound I-72, B = abamectin
Protocol: Test target: 2nd-instar larvae of Chilo suppressalis (Walker). The insect source was collected from Nanchang, Jiangxi Province, and it is the 11th generation continuously cultured indoors, with a relatively high resistance level to amide pesticides such as chlorantraniliprole.
as §2, §5
Experimental method: the spraying method was adopted. […] The corrected mortality rate was calculated using the Abbott's formula, and the DPS data processing software was used for statistical analysis to calculate the toxicities (LC50 values) of the single test pesticides and the mixtures under the test ratios. […]

[12] = test system: adult Bemisia tabaci (Gennadius); test: Joint toxicity of I-72 + abamectin, seedling spraying, Example 13, Table 13; settings: adults, kidney bean seedling spraying, 72 h; A = compound I-72, B = abamectin
Excerpt: (§6) Test subject: adult Bemisia tabaci (Gennadius), a sensitive strain reared indoors.
(§7) Experimental method: the spraying method was adopted. The kidney bean seedlings cultivated in the greenhouse were selected and evenly sprayed with the pesticide solution in the order from low dosage to high dosage according to the experimental design. After natural air-drying in the shade, a self-made glass cover was put on, and the test insects were introduced, with 20-30 insects for each treatment and 3 replicates. In addition, a blank control was set up. The number of dead and live insects was investigated 72 hours later. The corrected mortality rate was calculated using the Abbott's formula, and the DPS data processing software was used for statistical analysis to calculate the toxicities (LC50 values) of the single test pesticides and the mixtures under the test ratios.
(§8) The test conditions, the preparation of the pesticide solution and the evaluation method were the same as those in Example 1.
The test subject, the test method, the test conditions, the preparation of the pesticide solution and the evaluation method were the same as those in Example 12.

[13] = test system: 3rd-instar larvae of Spodoptera exigua Hübner; test: Joint toxicity of I-72 + emamectin benzoate, leaf-disk dipping, Example 9, Table 9; settings: cabbage leaf-disk dipping, 72 h, A = compound I-72, B = emamectin benzoate
Excerpt: Test subject: 3rd-instar larvae of Spodoptera exigua Hübner, a sensitive strain reared indoors.
Experimental method: the dipping method was adopted. The cabbage leaves cultivated in the greenhouse were taken, the surface wax layer was removed, and leaf disks with a diameter of 3 cm were made with a puncher. The leaf disks were dipped in the prepared pesticide solution for 10 s, and then put into a 9-cm-diameter Petri dish lined with filter paper. After natural air-drying in the shade, the standard test insects were introduced, with 10 insects placed in each dish and 3 replicates performed. The treated test insects were placed in an observation room under certain conditions. The reaction of the test insects was regularly observed, and the number of dead and live insects was investigated 72 h later.
as §8

[14] = test system: adult Bemisia tabaci (Gennadius); test: Joint toxicity of I-72 + emamectin benzoate, seedling spraying, Example 12, Table 12; settings: adults, kidney bean seedling spraying, 72 h; A = compound I-72, B = emamectin benzoate
Excerpt: as §6, §7, §8

[15] = test system: 2nd-instar larvae of Chilo suppressalis (Walker); test: whole plant or invertebrate; settings: resistant 2nd-instar larvae, rice stalk spraying, 72 h; A = compound I-72, B = spinetoram
Protocol: In addition, a blank control was set up. The number of dead and live insects was investigated 72 hours later.

[16] = test system: 2nd-instar nymphs of Frankliniella occidentalis Pergande; test: Joint toxicity of I-72 + spinetoram, leaf spraying, Example 11, Table 11; settings: kidney bean leaf spraying, 48 h, A = compound I-72, B = spinetoram
Excerpt: as §1
Experimental method: the spraying method was adopted. The kidney bean leaves cultivated in the greenhouse were selected, and the petioles were wrapped with moist degreased cotton and sealing film. They were evenly sprayed with the pesticide solution in the order from low dosage to high dosage according to the experimental design, placed in a 6-cm-diameter Petri dish with filter paper. After natural air-drying in the shade, the test insects were introduced, with 20 insects for each treatment and 3 replicates. In addition, a blank control was set up. The number of dead and live insects was investigated 48 hours later. The corrected mortality rate was calculated using the Abbott's formula, and the DPS data processing software was used for statistical analysis to calculate the toxicities (LC50 values) of the single test pesticides and the mixtures under the test ratios.
as §8

CCCCN(CCCC)SN(C)C(=O)Oc1cccc2c1OC(C)(C)C2 [carbosulfan, reference compound]
LC50 [1]: 43.2 µg/mL

CCOP(=S)(OCC)Oc1nc(Cl)c(Cl)cc1Cl [chlorpyrifos]
LC50 [2]: 4.6 µg/mL
LC50 [3]: 1.96 µg/mL
LC50 [4]: 13.7 µg/mL
LC50 [5]: 4.16 µg/mL
LC50 [6]: 12.1 µg/mL
LC50 [7]: 40.4 µg/mL
LC50 [8]: 5.24 µg/mL
LC50 [9]: 5.18 µg/mL

abamectin
Mortality rate (%) ([10]; single agent 0.1 mg/L): 10.42%
Mortality rate (%) ([10]; single agent 1 mg/L): 58.33%
Mortality rate (%) ([10]; single agent 2 mg/L): 75.00%
Mortality rate (%) ([10]; single agent 5 mg/L): 85.42%
LC50 [11]: 8.0355 µg/mL
LC50 [12]: 2.2263 µg/mL

emamectin benzoate
Mortality rate (%) ([10]; single agent 0.05 mg/L): 41.67%
Mortality rate (%) ([10]; single agent 0.1 mg/L): 50.00%
Mortality rate (%) ([10]; single agent 0.2 mg/L): 79.17%
Mortality rate (%) ([10]; single agent 0.5 mg/L): 87.50%
LC50 [13]: 0.0878 µg/mL
LC50 [14]: 1.1995 µg/mL

spinetoram
Mortality rate (%) ([10]; single agent 0.1 mg/L): 8.33%
Mortality rate (%) ([10]; single agent 1 mg/L): 56.25%
Mortality rate (%) ([10]; single agent 2 mg/L): 70.83%
Mortality rate (%) ([10]; single agent 5 mg/L): 81.25%
LC50 [15]: 9.4220 µg/mL
LC50 [16]: 0.7822 µg/mL
